From article PMC6100386, “Preparation of Novel Homodimers Derived from Cytotoxic Isoquinolinequinones. A Twin Drug Approach” (Molecules : A Journal of Synthetic Chemistry and Natural …, 2018)
Where two headings read alike, the source gives them in different places.

What was measured:
[1] = test system: MDA-MB-231 and B16-F10 tumor cells (versus MEF fibroblasts); assay: Cell growth inhibition assay, mean over the two tumor cell lines and selectivity versus fibroblasts; assay type: cell-based; settings: for IC50: mean of the IC50 values of the two tumor cell lines MDA-MB 231 and B16-F10, 72 h; for SI (mean selectivity index): IC50 values for fibroblast cells / IC50 values for tumor cells (mean IC50)
Description: (§1) The prepared homodimers 11–15 were evaluated for their in vitro cytotoxic activity using a conventional fluorescence assay (Cyquant direct cell proliferation assays), against primary mouse embryo fibroblast cell line MEF and two cancer cells lines: […] human breast adenocarcinoma and B16-F10 murine metastatic melanoma cells, in 72 h drug exposure assays. Monoamination products 6–10 were included in these preliminary assays. […] Etoposide and taxol, used clinically as anticancer agents, were taken as positive controls.
(§2) The cell lines used in this work included MDA-MB-231 human breast adenocarcinoma cells, B16-F10 mouse melanoma cells and MEF primary mouse embryonic fibroblasts. Cells were grown in DMEM high glucose medium (Mediatech, Manassas, VA, USA) supplemented with 10% (MDA-MB-231, and B16-F10) or 15% (MEF) heat-inactivated fetal bovine serum (HyClone laboratories, South Logan, UT, USA), 100 IU/mL penicillin and 100 μg/mL streptomycin, kept at 37 °C in a 5% CO2 humidified atmosphere. For the experiments, a total of 5.000 cells/well were seeded on a flat-bottomed 96-well plate with 200 μL final volume. Six hours after seeding, the cells were incubated with the medium containing the compounds at concentrations ranging from 0 up to 100 μM dissolved in DMSO (0.1% final concentration) for 72 h. The concentrations used to calculate the IC50 values were 100.0, 30.0, 10.0, 3.0, 1.0, 0.3, 0.1, 0.01 and 0.0 μM. Untreated cells (medium containing 0.1% DMSO) were used as controls. At the end of the incubation, cell viability was measured using CyQuant® direct cell proliferation assay kits (Life Technologies, Carlsbad, CA, USA) in accordance with the manufacturer’s instructions. Briefly, 100 μL of culture medium containing the compounds under evaluation was removed from each well and replaced by 2X detection reagent. The cells were incubated for 1 h and fluorescence emission was measured at 535 nm with excitation at 480 nm in a microplate reader (Infinite 200 PRO, Tecan, Männedorf, Switzerland). At least four independent experiments were performed for each concentration. Each result was transformed to percentage of controls and the IC50 values were obtained graphically from the dose–response curves. The IC50 value was obtained by adjusting the dose–response curve to a sigmoidal curve (variable slope) generated using GraphPad Prisma 6.0 software (La Jolla, CA, USA).

[2] = test system: B16-F10 mouse melanoma cells; assay: Cell growth inhibition assay (CyQuant direct cell proliferation), melanoma; assay type: cell-based; settings: murine metastatic melanoma cell line, 72 h drug exposure, average of six independent determinations, read-out: IC50 ± SEM, B16-F10
Description: as §1, §2

[3] = test system: MEF primary mouse embryonic fibroblasts; assay: Cell growth inhibition assay (CyQuant direct cell proliferation), normal fibroblasts; assay type: cell-based; settings: normal mouse embryo fibroblast cell line; 72 h drug exposure; average of six independent determinations; read-out: IC50 ± SEM, MEF
Description: as §1, §2

[4] = test system: MDA-MB-231 human breast adenocarcinoma cells; assay: Cell growth inhibition assay (CyQuant direct cell proliferation), breast adenocarcinoma; assay type: cell-based; settings: human breast adenocarcinoma cell line, 72 h drug exposure, average of six independent determinations, read-out: IC50 ± SEM, MDA-MB 231
Description: as §1, §2

IC50 ([2]; Mus musculus, B16-F10)	IC50 ([4]; MDA-MB-231)	melting point	IC50 [2]	IC50 [4]	Compound	IC50 ([1]; Fibroblast)	SI (mean selectivity index) [1]	IC50 [3]	IC50 [1]
6.16 ± 0.88 µM	2.46 ± 0.39 µM	149 to 150 °C			COC(=O)c1c(C)nc(C)c2c1C(=O)C=C(Nc1ccc(Cc3ccc(N)cc3)cc1)C2=O [Compound 6]	4.31 µM	2.06	8.87 ± 0.88 µM	
0.38 ± 0.06 µM	0.32 ± 0.07 µM				CC(=O)O[C@H]1C(=O)[C@@]2(C)[C@H]([C@H](OC(=O)c3ccccc3)[C@]3(O)C[C@H](OC(=O)[C@H](O)[C@@H](NC(=O)c4ccccc4)c4ccccc4)C(C)=C1C3(C)C)[C@]1(OC(C)=O)CO[C@@H]1C[C@@H]2O [Taxol, reference compound]	0.35 µM	0.91	0.32 ± 0.05 µM	
			48.6 ± 4.42 µM	55.6 ± 5.95 µM	CC(=O)c1c(C)nc(C)c2c1C(=O)C=C(Nc1ccc(Cc3ccc(NC4=CC(=O)c5c(C(C)=O)c(C)nc(C)c5C4=O)cc3)cc1)C2=O [Compound 12, 7,7′-(4,4′-Methylenebis(4,1-phenylene)bis(azanediyl))bis(4-acetyl-1,3-dimethylisoquinoline-5,8-dione)]		1.37	71.6 ± 6.39 µM	52.1 µM
0.45 ± 0.08 µM	0.29 ± 0.05 µM	191 to 192 °C			COC(=O)c1c(C)ncc2c1C(=O)C=C(Nc1ccc(Cc3ccc(NC4=CC(=O)c5cnc(C)c(C(=O)OC)c5C4=O)cc3)cc1)C2=O [Compound 15, Methyl-7-(4-(4-(4-(methoxycarbonyl)-3-methyl-5,8-dioxo-5,8-dihydroisoquinolin-6-ylamino)benzyl)phenylamino)-3-methyl-5,8-dioxo-5,8-dihydroisoquinoline-4-carboxylate]	0.37 µM	6.97	2.58 ± 0.33 µM	
> 100 µM	66.9 ± 6.13 µM	199 to 200 °C			COC(=O)c1c(C)nc(C)c2c1C(=O)C=C(Nc1ccc(Cc3ccc(NC4=CC(=O)c5c(C(=O)OC)c(C)nc(C)c5C4=O)cc3)cc1)C2=O [Compound 11]		0.30	> 100 µM	
3.31 ± 0.47 µM	1.45 ± 0.31 µM	83 to 84 °C			COC(=O)c1c(C)ncc2c1C(=O)C=C(Nc1ccc(Cc3ccc(N)cc3)cc1)C2=O [Compound 8]	2.38 µM	2.33	5.54 ± 0.82 µM	
			5.83 ± 0.73 µM	7.98 ± 1.43 µM	CC(=O)c1c(C)ncc2c1C(=O)C=C(Nc1ccc(Cc3ccc(NC4=CC(=O)c5c(cnc(C)c5C(C)=O)C4=O)cc3)cc1)C2=O [Compound 14, 7,7′-(4,4′-Methylenebis(4,1-phenylene)bis(azanediyl))bis(4-acetyl-3-methylisoquinoline-5,8-dione)]		4.74	32.8 ± 3.38 µM	6.91 µM
66.3 ± 5.61 µM	24.8 ± 4.78 µM				COC(=O)c1c(C)ncc2c1C(=O)C=C(Nc1ccc(Cc3ccc(NC4=CC(=O)c5c(cnc(C)c5C(=O)OC)C4=O)cc3)cc1)C2=O [Compound 13, Dimethyl-7,7′-(4,4′-methylenebis(4,1-phenylene)bis(azanediyl))bis(3-methyl-5,8-dioxo-5,8-dihydroisoquinoline-4-carboxylate)]	45.6 µM	1.75	79.8 ± 9.27 µM	
2 ± 0.44 µM	5.34 ± 0.12 µM				COc1cc([C@@H]2c3cc4c(cc3[C@@H](O[C@@H]3O[C@@H]5CO[C@@H](C)O[C@H]5[C@H](O)[C@H]3O)[C@H]3COC(=O)[C@H]23)OCO4)cc(OC)c1O [Etoposide, reference compound]	3.67 µM	0.32	1.18 ± 0.4 µM	
			2.17 ± 0.37 µM	2.75 ± 0.42 µM	4-Acetyl-6-((4-(4-aminobenzyl)phenyl)amino)-3-methylisoquinoline-5,8-dione [Compound 10]		2.09	5.14 ± 0.69 µM	2.46 µM
			7.14 ± 0.95 µM	19.5 ± 1.46 µM	CC(=O)c1c(C)nc(C)c2c1C(=O)C=C(Nc1ccc(Cc3ccc(N)cc3)cc1)C2=O [Compound 7]		1.15	15.4 ± 1.97 µM	13.3 µM
			0.76 ± 0.21 µM	1.59 ± 0.37 µM	CC(=O)c1c(C)ncc2c1C(=O)C=C(Nc1ccc(Cc3ccc(N)cc3)cc1)C2=O [Compound 9]		2.36	2.79 ± 0.44 µM	1.18 µM
